Experiments:
[1] = target: T1, CYP 3A4 (Homo sapiens, UniProt P08684); experiment: CYP inhibition in human liver microsomes, 3A4; format: in vitro ADME; settings: pH 7.4, @ 10 μM concn
T1 construct: from tissue; host or cells: human liver microsomes
In short: (§1)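 Human liver microsomes in 100 mM phosphate pH 7.4 with CYP-specific probe substrate were incubated with test compound at […] and 10 μM, started with 1 mM NADPH at 37° C. Reactions were stopped with acetonitrile, and marker-reaction metabolites were quantified by LC-MS/MS. Final solvent was ≤0.2%.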

[2] = target: T2, CYP 2D6 (Homo sapiens, UniProt P10635); experiment: CYP inhibition in human liver microsomes, 2D6; format: in vitro ADME; settings: pH 7.4, @ 10 μM concn
T2 construct: from tissue; host or cells: human liver microsomes
T2 sequence (P10635 whole entry): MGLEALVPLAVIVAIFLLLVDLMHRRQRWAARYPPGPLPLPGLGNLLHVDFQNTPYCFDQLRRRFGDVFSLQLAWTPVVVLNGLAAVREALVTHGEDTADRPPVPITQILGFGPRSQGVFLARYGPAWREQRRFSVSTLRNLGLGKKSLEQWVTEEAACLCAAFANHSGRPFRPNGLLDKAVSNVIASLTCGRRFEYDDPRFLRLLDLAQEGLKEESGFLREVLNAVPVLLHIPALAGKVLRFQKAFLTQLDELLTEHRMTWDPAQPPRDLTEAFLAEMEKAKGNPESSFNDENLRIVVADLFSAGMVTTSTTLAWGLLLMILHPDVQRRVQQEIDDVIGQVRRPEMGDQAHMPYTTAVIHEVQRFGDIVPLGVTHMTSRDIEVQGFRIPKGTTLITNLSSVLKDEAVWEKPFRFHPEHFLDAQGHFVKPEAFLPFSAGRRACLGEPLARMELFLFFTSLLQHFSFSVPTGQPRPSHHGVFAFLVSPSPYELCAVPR
In short: as §1

[3] = target: T3, CYP 2C19 (Homo sapiens, UniProt P33261); experiment: CYP inhibition in human liver microsomes, 2C19; format: in vitro ADME; settings: pH 7.4, @ 10 μM concn
T3 construct: from tissue; host or cells: human liver microsomes
T3 sequence (P33261 whole entry): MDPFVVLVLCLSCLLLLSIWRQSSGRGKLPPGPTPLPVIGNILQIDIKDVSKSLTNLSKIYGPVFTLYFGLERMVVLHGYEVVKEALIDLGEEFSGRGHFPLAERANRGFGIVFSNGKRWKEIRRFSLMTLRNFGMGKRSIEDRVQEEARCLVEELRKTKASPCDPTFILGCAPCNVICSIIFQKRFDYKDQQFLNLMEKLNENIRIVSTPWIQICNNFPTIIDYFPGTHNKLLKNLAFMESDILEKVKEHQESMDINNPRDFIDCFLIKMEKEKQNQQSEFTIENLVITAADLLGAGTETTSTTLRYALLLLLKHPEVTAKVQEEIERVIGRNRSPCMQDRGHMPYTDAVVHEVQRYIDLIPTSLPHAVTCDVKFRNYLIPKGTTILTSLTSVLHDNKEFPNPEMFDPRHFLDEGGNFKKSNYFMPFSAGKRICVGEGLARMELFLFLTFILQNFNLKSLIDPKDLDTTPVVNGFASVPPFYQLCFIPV
In short: as §1

[4] = target: T4, CYP 2C8 (Homo sapiens, UniProt P10632); experiment: CYP inhibition in human liver microsomes, 2C8; format: in vitro ADME; settings: pH 7.4, @ 10 μM concn
T4 construct: from tissue; host or cells: human liver microsomes
T4 sequence (P10632 1-490): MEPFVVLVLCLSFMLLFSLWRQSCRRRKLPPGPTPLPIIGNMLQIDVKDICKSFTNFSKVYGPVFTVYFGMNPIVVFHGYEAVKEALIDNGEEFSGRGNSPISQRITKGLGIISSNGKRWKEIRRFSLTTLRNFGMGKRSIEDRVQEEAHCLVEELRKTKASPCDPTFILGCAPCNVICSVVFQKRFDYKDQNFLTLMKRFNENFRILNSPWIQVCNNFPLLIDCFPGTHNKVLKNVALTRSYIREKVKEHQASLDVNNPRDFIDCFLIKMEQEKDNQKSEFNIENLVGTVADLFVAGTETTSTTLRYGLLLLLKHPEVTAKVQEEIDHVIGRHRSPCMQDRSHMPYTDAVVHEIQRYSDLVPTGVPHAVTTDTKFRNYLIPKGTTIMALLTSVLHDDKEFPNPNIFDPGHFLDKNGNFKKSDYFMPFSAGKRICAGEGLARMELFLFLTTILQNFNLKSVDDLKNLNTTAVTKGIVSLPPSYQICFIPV
In short: as §1

[5] = target: T5, recombinant purified human BTK (Homo sapiens, UniProt Q06187); experiment: In vitro BTK kinase assay on ADP Glo platform; format: biochemical; settings: 2 hr room temperature, read-out: In-vitro BTK inhibitory activity: IC50
T5 construct: purchased SignalChem, USA
T5 sequence (Q06187 whole entry): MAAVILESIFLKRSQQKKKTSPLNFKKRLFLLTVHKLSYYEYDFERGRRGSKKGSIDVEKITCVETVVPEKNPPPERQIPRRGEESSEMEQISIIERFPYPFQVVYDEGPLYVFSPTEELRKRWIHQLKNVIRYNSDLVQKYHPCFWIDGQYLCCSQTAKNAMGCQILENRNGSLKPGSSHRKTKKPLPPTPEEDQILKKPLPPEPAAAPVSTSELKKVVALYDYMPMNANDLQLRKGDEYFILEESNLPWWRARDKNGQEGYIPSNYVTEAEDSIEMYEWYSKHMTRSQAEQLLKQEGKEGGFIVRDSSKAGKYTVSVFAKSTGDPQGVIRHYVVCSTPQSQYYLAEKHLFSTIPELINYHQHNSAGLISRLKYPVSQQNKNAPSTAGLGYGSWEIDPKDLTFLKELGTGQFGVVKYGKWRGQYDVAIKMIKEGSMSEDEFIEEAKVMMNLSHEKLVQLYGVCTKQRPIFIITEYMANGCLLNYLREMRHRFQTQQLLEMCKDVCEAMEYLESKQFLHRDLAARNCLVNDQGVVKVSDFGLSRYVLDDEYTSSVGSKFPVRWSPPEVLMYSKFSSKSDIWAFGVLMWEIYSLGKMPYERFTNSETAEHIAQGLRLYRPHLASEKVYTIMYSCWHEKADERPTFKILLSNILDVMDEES
In short: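 Recombinant human BTK (3 ng/reaction) with compound dilutions in Tris pH 7.5, MgCl2/MnCl2, BSA, DTT; started with 50 µM ATP (final) and polyGln4Tyr1 substrate, 2 h at room temperature. ADP formed detected by ADP-Glo luminescence; IC50 by nonlinear fit versus uninhibited enzyme as 100%.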

[6] = target: T6, CYP 2C9 (Homo sapiens, UniProt P11712); experiment: CYP inhibition in human liver microsomes, 2C9; format: in vitro ADME; settings: pH 7.4, @ 10 μM concn
T6 construct: from tissue; host or cells: human liver microsomes
T6 sequence (P11712 whole entry): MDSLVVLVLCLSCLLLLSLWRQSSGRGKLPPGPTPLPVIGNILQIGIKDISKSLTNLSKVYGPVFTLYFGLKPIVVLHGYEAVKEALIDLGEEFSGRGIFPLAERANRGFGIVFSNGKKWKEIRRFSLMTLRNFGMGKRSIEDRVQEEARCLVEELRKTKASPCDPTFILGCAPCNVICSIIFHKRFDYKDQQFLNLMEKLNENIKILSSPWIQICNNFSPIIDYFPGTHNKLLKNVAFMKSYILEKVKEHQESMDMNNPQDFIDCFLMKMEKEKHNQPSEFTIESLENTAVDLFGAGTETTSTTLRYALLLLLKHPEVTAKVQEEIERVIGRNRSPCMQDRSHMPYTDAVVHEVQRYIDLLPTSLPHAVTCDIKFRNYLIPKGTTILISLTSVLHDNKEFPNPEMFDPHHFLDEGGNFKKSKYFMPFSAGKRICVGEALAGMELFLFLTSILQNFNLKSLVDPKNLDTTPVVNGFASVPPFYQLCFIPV
In short: as §1

[7] = target: T7, CYP 1A2 (Homo sapiens, UniProt P05177); experiment: CYP inhibition in human liver microsomes, 1A2; format: in vitro ADME; settings: pH 7.4, @ 10 μM concn
T7 construct: from tissue; host or cells: human liver microsomes
T7 sequence (P05177 1-516): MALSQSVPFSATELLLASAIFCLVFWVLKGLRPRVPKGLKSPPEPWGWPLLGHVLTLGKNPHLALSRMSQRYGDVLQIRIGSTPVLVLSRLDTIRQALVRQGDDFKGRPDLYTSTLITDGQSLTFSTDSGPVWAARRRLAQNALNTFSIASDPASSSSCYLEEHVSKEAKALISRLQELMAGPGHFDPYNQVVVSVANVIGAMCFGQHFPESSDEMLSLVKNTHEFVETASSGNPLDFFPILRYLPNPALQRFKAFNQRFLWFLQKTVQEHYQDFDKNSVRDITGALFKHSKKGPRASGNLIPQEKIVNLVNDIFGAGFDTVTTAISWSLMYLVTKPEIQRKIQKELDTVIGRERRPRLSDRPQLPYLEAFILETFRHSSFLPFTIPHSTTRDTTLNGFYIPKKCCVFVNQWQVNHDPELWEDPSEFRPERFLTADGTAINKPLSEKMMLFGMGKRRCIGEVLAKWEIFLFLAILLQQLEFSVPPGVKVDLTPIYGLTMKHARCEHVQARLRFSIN
In short: as §1

T1 sequence (P08684 whole entry): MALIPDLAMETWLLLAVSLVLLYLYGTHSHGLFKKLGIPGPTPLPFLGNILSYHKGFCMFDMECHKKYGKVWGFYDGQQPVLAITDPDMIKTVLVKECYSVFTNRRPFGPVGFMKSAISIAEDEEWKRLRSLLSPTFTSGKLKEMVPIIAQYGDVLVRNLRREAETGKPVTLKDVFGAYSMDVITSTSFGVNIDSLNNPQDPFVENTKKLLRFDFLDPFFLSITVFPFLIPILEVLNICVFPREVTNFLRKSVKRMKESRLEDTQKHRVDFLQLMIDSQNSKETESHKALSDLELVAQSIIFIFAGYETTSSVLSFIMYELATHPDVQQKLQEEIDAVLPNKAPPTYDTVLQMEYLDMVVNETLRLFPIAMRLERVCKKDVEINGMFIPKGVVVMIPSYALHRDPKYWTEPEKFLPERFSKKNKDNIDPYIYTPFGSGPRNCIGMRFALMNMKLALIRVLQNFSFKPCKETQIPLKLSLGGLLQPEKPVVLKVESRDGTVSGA

| inhibition at 10 μM [1] | inhibition at 10 μM [2] | inhibition at 10 μM [3] | inhibition at 10 μM [4] | IC50 [5] | inhibition at 10 μM [6] | inhibition at 10 μM [7] | SMILES |
| --- | --- | --- | --- | --- | --- | --- | --- |
| > 50% | < 50% | < 50% | > 50% | 100 nM | > 50% | < 50% | CN(C)C/C=C/C(=O)N1CC2CC(n3nc(-c4ccc(C(=O)Nc5cc(C(F)(F)F)ccn5)cc4)c4c(N)ncnc43)CC2C1 (stereo not shown) [Compound 51, (E)-4-(4-amino-1-(2-(4-(dimethylamino)but-2-enoyl)octahydrocyclopenta [c]pyrrol-5-yl)-1H-pyrazolo[3,4-d]pyrimidin-3-yl)-N-(4-(trifluoromethyl)pyridine-2-yl)benzamide] |
| < 50% | < 50% | < 50% | < 50% | 50 nM | < 50% | > 50% | C=CC(=O)N1CC2CC(n3nc(-c4ccc(-c5cnn(C)c5)cc4)c4c(N)ncnc43)CC2C1 (stereo not shown) [Compound 21, 1-(5-(4-amino-3-(4-(1-methyl-1H-pyrazol-4-yl)phenyl)-1H-pyrazolo [3,4-d]pyrimidin-1-yl)hexahydrocyclopenta[c]pyrrol-2(1H)-yl)prop-2-en-1-one] |
| > 50% | < 50% | < 50% | < 50% | 8 nM | < 50% | < 50% | C=CC(=O)N1CC2CC(n3nc(-c4ccc5nc(C)sc5c4)c4c(N)ncnc43)CC2C1 (stereo not shown) [Compound 5, 1-(5-(4-amino-3-(2-methylbenzo[d]thiazol-6-yl)-1H-pyrazolo[3,4-d]pyrimidin-1-yl)hexahydrocyclopenta[c]pyrrol-2(1H)-yl)prop-2-en-1-one] |
| < 50% | < 50% | < 50% | < 50% | 8 nM | > 50% | < 50% | C=CC(=O)N1CC2CN(c3ccc(Cn4nc(-c5ccc(Oc6ccccc6)cc5)c5c(N)ncnc54)cn3)CC2C1 (stereo not shown) [Compound 3, 1-(5-(5-((4-amino-3-(4-phenoxyphenyl)-1H-pyrazolo[3,4-d]pyrimidin-1-yl)methyl)pyridin-2-yl)hexahydropyrrolo[3,4-c]pyrrol-2(1H)-yl)prop-2-en-1-one] |

The remaining lines, values behind:

| SMILES | inhibition at 10 μM [1] | inhibition at 10 μM [2] | inhibition at 10 μM [3] | inhibition at 10 μM [4] | IC50 [5] | inhibition at 10 μM [6] | inhibition at 10 μM [7] |
| --- | --- | --- | --- | --- | --- | --- | --- |
| CN(C)C/C=C/C(=O)N1CC2CC(n3nc(-c4ccc(-c5nnc(-c6cnccn6)s5)cc4)c4c(N)ncnc43)CC2C1 (stereo not shown) [Compound 56, (E)-1-(5-(4-amino-3-(4-(5-(pyrazin-2-yl)-1,3,4-thiadiazol-2-yl)phenyl)-1H-pyrazolo[3,4-d]pyrimidin-1-yl)hexahydrocyclopenta[c]pyrrol-2(1H)-yl)-4-(dimethylamino)but-2-en-1-one] | > 50% | < 50% | < 50% | > 50% | 50 nM | > 50% | > 50% |
| C=CC(=O)N1CC2CC(n3nc(-c4ccc5oc(-c6ccccc6)nc5c4)c4c(N)ncnc43)CC2C1 (stereo not shown) [Compound 23, 1-(5-(4-amino-3-(2-phenylbenzo[d]oxazol-5-yl)-1H-pyrazolo[3,4-d]pyrimidin-1-yl)hexahydrocyclopenta[c]pyrrol-2(1H)-yl)prop-2-en-1-one] | > 50% | < 50% | < 50% | > 50% | 48 nM | > 50% | < 50% |
| C=CS(=O)(=O)N1CC2CC(n3nc(-c4ccc(Oc5ccccc5)cc4)c4c(N)ncnc43)CC2C1 (stereo not shown) [Compound 18, 3-(4-phenoxyphenyl)-1-(2-(vinylsulfonyl)octahydrocyclopenta[c]pyrrol-5-yl)-1H-pyrazolo[3,4-d]pyrimidin-4-amine] | > 50% | < 50% | < 50% | > 50% | 218 nM | > 50% | < 50% |
